Test results taken from paper PMC10184313, “Inhibition of Thiamine Diphosphate-Dependent Enzymes by Triazole-Based Thiamine Analogues” (ACS Medicinal Chemistry Letters, 2023).
Like-named read-outs stand apart in the source and are kept apart here.

Columns and labels:
HFF cells = experiment: in vitro; format: cell-based, human; details: IC50 (thiamine-free) vs HFF cytotoxicity
Experimental: (§1) Cell-based assays (Results)
(§2) Anti-plasmodial activity assay. This study used human malaria parasite P. falciparum strain 3D7 (chloroquine-sensitive) and the same strain expressing an extra copy of TPK with a GFP-tag ( PfTPK-GFP) generated as previously described. 9 The intraerythrocytic stage of the parasites were maintained essentially as previously described. 10 Compounds were tested at concentrations up to a highest final […]
(§3) were prepared in dimethyl sulfoxide (DMSO) followed by dilution in RPMI 1640 medium in the absence of thiamine or in the presence of 2.97 µM (or 297 µM) thiamine. The final concentration of DMSO that the parasites were exposed to never exceeded 0.05%. Two-fold serial dilutions were then performed, with each concentration tested in triplicate. The assay was performed as described 11 with some modifications. Experiments were initiated with parasites in the ring-stage, a parasitemia level of 0.5% and a haematocrit of 2%. Chloroquine (0.5 µM) was used as the positive control ( i.e. complete inhibition of parasite proliferation), and parasites maintained in the absence of any inhibitor represented 100% parasite proliferation. The final volume in each well was 200 µL. Plates were incubated at 37 °C, under an atmosphere of 96% nitrogen, 3% carbon dioxide and 1% oxygen. Parasite proliferation was measured by performing SYBR-Safe assay. 12 The concentration at which the compound suppresses […]
(§4) Excel and analysed by non-linear regression plot using GraphPad Prism. The data were averaged from three independent experiments.
(§5) Cytotoxicity assay. This study used HFF cells (human foreskin fibroblasts) as described 13 with some modifications. The HFF cells were seeded in 96-well plates at a density of about 13 x 10^4 cells/mL.
(§6) Plates were incubated at 37 °C in a humidified 5% carbon dioxide incubator for 96 h. A sample of the supernatant (150 µL) was then carefully aspirated from each well and discarded. The plates were then stored at -80 °C. SYBR- Safe assay was used. The plates were thawed, SYBR-Safe lysis solution (150 µL) was added to each well and mixed via pipetting to ensure the HFF cells were detached from the plate and lysed. The plates were then processed as described for the anti-plasmodial assay.

in vitro = format: cell-based, human; details: human
Experimental: as §1, §2, §3, §4, §5, §6

P. falciparum strain 3D7 = experiment: Anti-plasmodial activity assay (SYBR-Safe); format: cell-based, Plasmodium falciparum
Experimental: Next the effects of the thiamine/ThDP analogues on in vitro proliferation of the 3D7 strain of P. falciparum were determined. […] Parasite proliferation was measured by SYBR-Safe assay of parasite DNA.[11],[15]
as §1, §2, §3
Excel and analysed by non-linear regression plot using GraphPad Prism. The data were averaged from three independent experiments. […]

Z. mobilis PDC = biological target: T1, Z. mobilis PDC (Zymomonas mobilis subsp. mobilis, UniProt P06672); experiment: Z. mobilis PDC inhibitory activity assay (NADH consumption); format: biochemical; details: for Ki: Z. mobilis PDC, determined according to the KM for ThDP; for IC50: bacterial PDC (Zymomonas mobilis), [ThDP] 10 μM
T1 construct: made in house
T1 sequence (P06672 1-568): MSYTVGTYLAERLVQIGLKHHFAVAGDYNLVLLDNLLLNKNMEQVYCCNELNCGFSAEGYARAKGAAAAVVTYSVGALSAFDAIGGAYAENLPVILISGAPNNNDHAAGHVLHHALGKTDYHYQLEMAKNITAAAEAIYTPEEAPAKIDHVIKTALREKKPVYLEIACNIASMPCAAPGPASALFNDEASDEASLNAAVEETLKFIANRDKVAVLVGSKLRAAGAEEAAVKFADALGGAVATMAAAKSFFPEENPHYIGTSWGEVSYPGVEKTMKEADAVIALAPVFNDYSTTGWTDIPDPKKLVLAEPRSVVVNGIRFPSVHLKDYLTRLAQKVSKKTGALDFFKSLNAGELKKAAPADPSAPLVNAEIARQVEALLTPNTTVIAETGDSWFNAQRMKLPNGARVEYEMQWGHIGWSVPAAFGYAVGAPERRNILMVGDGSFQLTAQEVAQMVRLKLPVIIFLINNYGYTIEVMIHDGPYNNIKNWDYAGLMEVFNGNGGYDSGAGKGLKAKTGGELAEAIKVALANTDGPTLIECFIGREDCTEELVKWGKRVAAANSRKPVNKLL

[1] = test system: P. falciparum 3D7 expressing PfTPK-GFP; experiment: Anti-plasmodial activity, 3D7 expressing PfTPK-GFP; format: cell-based; details: Plasmodium falciparum, 3D7, read-out: IC50 anti-plasmodial activity, PfTPK-GFP
Experimental: as §1, §2
as §3, with “Plates were incubated at 37 °C, under an atmosphere of 96% nitrogen, 3% carbon dioxide and 1% oxygen.” left out, “assay.” for “assay. 12 The concentration at which the compound suppresses”
(§7) Excel and analysed by non-linear regression plot using GraphPad Prism. […]

[2] = test system: P. falciparum 3D7 transfected with an empty plasmid; experiment: Anti-plasmodial activity, 3D7 transfected with an empty plasmid; format: cell-based; details: Plasmodium falciparum, 3D7, read-out: IC50 anti-plasmodial activity, empty plasmid
Experimental: as §1, §2
as §3, with “Plates were incubated at 37 °C, under an atmosphere of 96% nitrogen, 3% carbon dioxide and 1% oxygen.” left out, “assay.” for “assay. 12 The concentration at which the compound suppresses”
as §7

[3] = Plasmodium falciparum, 3D7, 3D7, [Thiamine] = 2.97 μM, read-out: IC50 of Suppression of P. falciparum proliferation, [Thiamine] = 2.97 μM
[4] = Plasmodium falciparum, 3D7, 3D7, [Thiamine] = 297 μM, read-out: IC50 of Suppression of P. falciparum proliferation, [Thiamine] = 297 μM
[5] = Plasmodium falciparum, 3D7, 3D7, thiamine-free medium, read-out: IC50 of Suppression of P. falciparum proliferation, Thiamine-free

| Structure (SMILES) | Selectivity Index (HFF cells) | IC50 at 96 h (in vitro) | IC50 (P. falciparum strain 3D7; [3]) | IC50 (P. falciparum strain 3D7; [4]) | IC50 (P. falciparum strain 3D7; [5]) | Ki (Z. mobilis PDC) | IC50 (Z. mobilis PDC) | fold more potent than 17c at inhibiting proliferation of the parasites (P. falciparum strain 3D7) | IC50 (P. falciparum strain 3D7; 3D7, thiamine-free medium, read-out: IC50 of Suppression of P. falciparum proliferation, Thiamine-free) | fold more active than 24c (anti-plasmodial) (P. falciparum strain 3D7; thiamine-free culture medium) | IC50 [1] | IC50 [2] |
| --- | --- | --- | --- | --- | --- | --- | --- | --- | --- | --- | --- | --- |
| COc1ccc(-c2cn(CCCc3cn(Cc4cnc(C)nc4N)nn3)nn2)cc1 [Compound 17b] | 1.8 | 90 ± 5 µM | 78 ± 8 µM | 82 ± 11 µM | 51 ± 3 µM | – | – | – | – | – | – | – |
| Cc1ncc(Cn2cc(CCCn3cc(-c4ccc(F)cc4)nn3)nn2)c(N)n1 [Compound 16b] | – | > 200 µM | > 200 µM | > 200 µM | > 200 µM | – | – | – | – | – | – | – |
| Cc1ncc(Cn2cc(CCCC(=O)NO)nn2)c(N)n1 [Compound 24b] | 16.7 | 15 ± 3 µM | 1.3 ± 0.2 µM | 1.4 ± 0.4 µM | 0.9 to 3 µM | 0.68 µM | 20 ± 2 µM | ~50 fold | 0.9 ± 0.1 µM | 3 fold | 2 ± 0.6 µM | 1.7 ± 0.3 µM |
| Cc1ncc(Cn2cc(CCn3cc(-c4ccc(F)cc4)nn3)nn2)c(N)n1 [Compound 16a] | – | – | > 200 µM | > 200 µM | > 200 µM | – | – | – | – | – | – | – |
| Cc1ncc(Cn2cc(CCCCC(=O)NO)nn2)c(N)n1 [Compound 24c] | 14.7 | 44 ± 4 µM | 3.8 ± 2 µM | 4 ± 1.8 µM | – | 0.89 µM | 25 ± 2 µM | – | – | – | – | – |
| Cc1ncc(Cn2cc(CCCCn3cc(-c4ccc(F)cc4)nn3)nn2)c(N)n1 [Compound 16c] | 0.7 | 48 ± 5 µM | 70 ± 8 µM | 89 ± 19 µM | 67 ± 5 µM | – | – | – | – | – | – | – |
| COc1ccc(-c2cn(CCCCc3cn(Cc4cnc(C)nc4N)nn3)nn2)cc1 [Compound 17c] | 1.1 | 46 ± 7 µM | 62 ± 7 µM | 69 ± 9 µM | 44 ± 2 µM | – | – | – | – | – | 44 ± 9 µM | 38 ± 7 µM |
| COc1ccc(-c2cn(CCc3cn(Cc4cnc(C)nc4N)nn3)nn2)cc1 [Compound 17a] | – | > 200 µM | 156 ± 13 µM | 169 ± 11 µM | 129 ± 9 µM | – | – | – | – | – | – | – |
